These results are taken from US20240043933A1, “METHODS FOR DETECTING AND PREDICTING BREAST CANCER” (UCL Business Ltd, priority 2020, published 2024).

The subject of experiment [1] is breast epithelial proliferation. The note with it: three premenopausal volunteers; cited from earlier work.
Experiment [2] has as its system contralateral breast cancer. The note with it: postmenopausal breast cancer patients; cited from earlier work.
Experiment [3] has as its system WID-Breast29 (mean methylation level of 37 CpGs) in breast tissue. The experiment is described as follows: WID-Breast29 in breast biopsies before and after treatment (clinical trials, Set 3). The class given is in vivo, human. The source says:
Set 3: to assess the performance of the WID-Breast29 test monitoring preventive measures in real time. The samples were obtained from two clinical trials (FIG. 4) as follows.
Trial 1 was “Mifepristone treatment prior to insertion of a levonorgestrel releasing intrauterine system for improved bleeding control—a randomised controlled trial” (1) (EudraCT number: 2009-009014-40; Regional ethical review board at Karolinska Institutet permit 2009/144-31/4). The primary objective was to assess the effect of mifepristone pre-treatment on the initial bleeding pattern after insertion of a levonorgestrel releasing intrauterine system. An included secondary objective was to study the effect of mifepristone on breast tissue.
Trial 2 was “The Effect of a Progesterone Receptor Modulator on Breast Tissue in Women with BRCA-1 and -2 Mutations” (ClinicalTrials.gov Identifier: NCT01898312; regional ethical review board at Karolinska Institutet permit 2012/729 31/1). The core objective of this ongoing study is to assess the safety and effect of treatment with mifepristone on epithelial cell proliferation in human breast tissue in women with BRCA-1 or -2 mutations prior to protective mastectomy.
(§1) Study subjects for both trials were healthy premenopausal women aged 18 and above with regular menstrual cycles lasting 25-35 days and with no contraindications to mifepristone. The main exclusion criteria were: use of any hormonal or intrauterine contraception and pregnancy or breastfeeding two months prior to the study; a history of breast cancer or other malignancies and adnexal abnormality upon transvaginal ultrasound examination. All women were instructed to use barrier contraceptive methods throughout the duration of the study. After signing an informed consent, study subjects in both trials were randomised 1:1 or 1:2 into the vitamin arm (Triobe®—used as a comparator in these studies) or mifepristone arm in Trial 1 and Trial 2, respectively. One group (i.e. 16 BRCA carriers and 28 controls) was treated with 50 mg mifepristone (one quarter of 200 mg Mifegyne®, Exelgyn, Paris, France) every other day for two months in Trial 1 (n=28) and three months in Trial 2 (n=16) starting on the first day of the menstrual cycle. As mifepristone is only available in 200 mg tablets in Sweden, a study nurse divided the tablets into 4 parts (each 50 mg) and instructed the study subjects to take one part every other day. The other group (i.e. 8 BRCA carriers and 29 controls) received Triobe® tablets which are visually identical to mifepristone and were also divided into 4 parts [one quarter of TrioBe® contains 0.125 mg cyanocobalamin (Vitamin B12), 0.2 mg folic acid (Vitamin B9), and 0.75 mg Pyridoxinhydrochlorid (Vitamin B6)]. Tablets were dispensed for two weeks at a time. […]

The subject of experiment [4] is WID-Breast5 (mean PMR of MTA1, HOXD12, LHX8, NEUROD1, CBLN4) in breast tissue. The experiment is described as follows: WID-Breast5 (MethyLight PMR) in breast biopsies before and after treatment (Set 3). It is filed as in vivo, human.
Source text: as §1, with “time. Core needle aspiration biopsies were collected during the luteal phase before treatment and at the end of treatment during the luteal phase (vitamin treatment) or corresponding time of the cycle (mifepristone treatment). The biopsies were collected under ultrasound guidance from the upper outer quadrant of one breast using a 14 Gauge needle with an outer diameter of 2.2 mm. The end-of-treatment breast biopsy was taken from the same area. From Trial 1, 12 women from each of the vitamin and mifepristone groups were included in this study; of these, 11 and 9 women, respectively, had provided sufficient DNA from the pre- and post-treatment biopsies for subsequent processing and analysis.” for “time.”
Sodium bisulfite conversion of genomic DNA and the MethyLight assay were performed as previously described (A. Jones et al., Role of DNA methylation and epigenetic silencing of HAND2 in endometrial cancer development. PLoS Med 10, e1001551 (2013)). […] The percentage of fully methylated molecules at a specific locus has been calculated by dividing the GENE:COL2A1 ratio of a sample by the GENE:COL2A1 ratio of SssI-treated human white blood cell DNA and multiplied by 100. […]

The test system of a further experiment is breast tissue. The note with it: healthy women; cited from earlier work.
For another experiment, the system named is mammary cancer. The following applies: mice; cited from earlier work.
Experiment [5] relates to BRCA-mediated breast cancer. The note with it: rodents; cited from earlier work.
[6] abbreviates: biopsies before and after 2-3 month treatment.

Entries after “also recorded” stand apart in the source; their conditions may differ.

In the case of “Denosumab: fully humanised monoclonal antibody that binds RANKL”, the “effect on breast epithelial proliferation” value in experiment [1] is “reduce breast epithelial proliferation”. The “impact on the incidence of contralateral breast cancer” value in experiment [2] was “does not appear to impact”.

`CC#C[C@]1(O)CC[C@H]2[C@@H]3CCC4=CC(=O)CCC4=C3[C@@H](c3ccc(N(C)C)cc3)C[C@@]21C` [mifepristone]: in experiment [3] (BRCA mutant volunteers (4/11)), the “BRCA mutant volunteers not showing a reduction of the WID-Breast29 after treatment” value is listed as 36%. For the same compound, in experiment [3] (all women of the group (15 vitamins, 20 mifepristone), biopsies before and after 2-3 month treatment), the “women exhibiting a lower WID-Breast29 after treatment” value is on record as 80%. In addition, the “change in WID-Breast29 after treatment (paired-sample t-test)” value in experiment [3] (setting [6]) is reported as “highly significant reduction; also recorded: significantly reduced”. Besides, the “control volunteers showing a reduction of the WID-Breast29 after treatment” value in experiment [3] (healthy control volunteers (n=9)) is listed as 100%. Moreover, the “BRCA mutant volunteers not showing a reduction of the WID-Breast5 after treatment” value in experiment [4] (BRCA mutant volunteers (6/10)) was 60%. Also, the “women exhibiting a lower WID-Breast5 after treatment” value in experiment [4] (all women of the group (12 vitamins, 16 mifepristone), biopsies before and after 2-3 month treatment) stood at 75%. Moreover, the “change in WID-Breast5 after treatment (paired-sample t-test)” value in experiment [4] (setting [6]) is “highly significant reduction; also recorded: significantly reduced”. The “control volunteers showing a reduction of the WID-Breast5 after treatment” value in experiment [4] (healthy control volunteers (n=6)) turned out to be 100%. Also, in the experiment on breast tissue, the “effect on proliferation in breast tissue” value is reported as “antiproliferative effect”. Further, the “effect on mammary cancer development” value in the experiment with mammary cancer is reported as “reduce mammary cancer development”. Also, the “prevention of BRCA-mediated breast cancer formation” value in experiment [5] is given as “can be prevented”.
